Reference: patent US11472808B2, “Substituted pyrrolo[1,2-c]pyrimidines as hepatitis B antiviral agents” (Enanta Pharmaceuticals, Inc., priority 2019, dated 2022)

Each compound was assayed on HBV (assay: HepAD38 anti-HBV assay: reduction of viral product accumulation (virion DNA qPCR, HBsAg/HBeAg ELISA)). Conditions: Hepatitis B virus, 120 h; HepAD38 cells; concentration reducing viral product accumulation by 50% relative to no drug controls; harvest five days after compound addition; read-out: HepAD38 EC50.
Type: cell-based
Method in brief: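 Tetracycline-free HepAD38 cells treated 5 days with compound (1:200 DMSO dilution), or 8 days with media and compound refreshed on d2 and d5. Virion DNA quantified by qPCR; HBsAg or HBeAg by ELISA. EC50 is the concentration reducing viral product accumulation 50% versus no-drug controls.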
Compound `O=S(=O)(N[C@H]1CC2=C(c3ccn(C(F)F)n3)[C@H](c3ccc(F)cc3Cl)N=C(c3nccs3)N2C1)NC1(c2ccccn2)CC1` [Example 321] has an EC50 of less than 100 nM. For `O=C(O)CC1CCN(CCS(=O)(=O)N[C@H]2CC3=C(c4ccn(C(F)F)n4)[C@H](c4ccc(F)cc4Cl)N=C(c4nccs4)N3C2)CC1` [Example 63], the EC50 was greater than 400 nM. Work on `C#CC1(O)CCN(S(=O)(=O)N[C@H]2CC3=C(c4ccn(C(F)F)n4)[C@H](c4ccc(F)cc4Cl)N=C(c4cccs4)N3C2)CC1` [Example 265] yielded an EC50 of less than 100 nM. `O=S(=O)(CCc1ccccn1)N[C@H]1CC2=C(c3ccn(C(F)F)n3)[C@H](c3ccc(F)cc3Cl)N=C(c3nccs3)N2C1` [Example 380] gave an EC50 of 100 to 400 nM. `O=C(Nc1ccccc1)N1CCN([C@H]2CC3=C(c4ccn(C(F)F)n4)[C@H](c4ccc(F)cc4Cl)N=C(c4nccs4)N3C2)CC1` [Example 49] was tested, and the EC50 was greater than 400 nM. In the case of `COC(=O)c1ccc(Cl)c(S(=O)(=O)N[C@H]2CC3=C(c4ccn(C(F)F)n4)[C@H](c4ccc(F)cc4Cl)N=C(c4nccs4)N3C2)c1` [Example 24], the EC50 is reported as 100 to 400 nM. With `O=C(N[C@H]1CC2=C(c3ccn(C(F)F)n3)[C@H](c3ccc(F)cc3Cl)N=C(c3nccs3)N2C1)N1CCC(O)CC1` [Example 208] the EC50 was less than 100 nM. `COC[C@@]1(O)CC2=C(c3ccn(C(F)F)n3)[C@H](c3ccc(F)cc3Cl)N=C(c3nccs3)N2C1` [Example 106] was tested, and the EC50 was greater than 400 nM. Compound `O=S(=O)(C[C@@]1(F)CC2=C(c3ccn(C(F)F)n3)[C@H](c3ccc(F)cc3Cl)N=C(c3nccs3)N2C1)c1ccccc1` [Example 196] has an EC50 of 100 to 400 nM. `COC(=O)c1ccc(NC(=O)N2CCN([C@H]3CC4=C(c5ccn(C(F)F)n5)[C@H](c5ccc(F)cc5Cl)N=C(c5nccs5)N4C3)CC2)cc1` [Example 46] gave an EC50 greater than 400 nM. `CS(=O)(=O)CC(NS(=O)(=O)N[C@H]1CC2=C(c3ccn(C(F)F)n3)[C@H](c3ccc(F)cc3Cl)N=C(c3nccs3)N2C1)c1ccccn1` (stereo partly drawn) [Example 345] showed an EC50 of less than 100 nM. `O=C(O)c1ccccc1S(=O)(=O)N[C@H]1CC2=C(c3ccn(C(F)F)n3)[C@H](c3ccc(F)cc3Cl)N=C(c3nccs3)N2C1` [Example 7] showed an EC50 greater than 400 nM. For `CS(=O)(=O)NC[C@@]1(N)CC2=C(c3ccn(C(F)F)n3)[C@H](c3ccc(F)cc3Cl)N=C(c3nccs3)N2C1` [Example 148], the EC50 was greater than 400 nM. Work on `CSC[C@@]1(O)CC2=C(c3ccn(C(F)F)n3)[C@H](c3ccc(F)cc3Cl)N=C(c3nccs3)N2C1` [Example 142] yielded an EC50 greater than 400 nM. With `O=C(N[C@H]1CC2=C(c3ccn(C(F)F)n3)[C@H](c3ccc(F)cc3Cl)N=C(c3nccs3)N2C1)N1CCC(O)(c2ccccc2)CC1` [Example 242] the EC50 was 100 to 400 nM. Work on `CS(=O)(=O)NC[C@]1(N)CC2=C(c3ccn(C(F)F)n3)[C@H](c3ccc(F)cc3Cl)N=C(c3nccs3)N2C1` [Example 146] yielded an EC50 greater than 400 nM. With `O=C(N[C@H]1CC2=C(c3ccn(C(F)F)n3)[C@H](c3ccc(F)cc3Cl)N=C(c3nccs3)N2C1)C1CCC(O)CC1` (stereo partly drawn) [Example 249] the EC50 was 100 to 400 nM. Compound `O=C(N[C@H]1CC2=C(c3ccn(C(F)F)n3)[C@H](c3ccc(F)cc3Cl)N=C(c3nccs3)N2C1)N1CCC(O)(c2ncc[nH]2)CC1` [Example 247] has an EC50 greater than 400 nM. `O=C(N[C@H]1CC2=C(c3ccn(C(F)F)n3)[C@H](c3ccc(F)cc3Cl)N=C(c3nccs3)N2C1)[C@@H]1CC1c1ccccn1` (relative stereo) [Example 312] showed an EC50 of 100 to 400 nM. `O=S(=O)(NC(CO)c1ccccn1)N[C@H]1CC2=C(c3ccn(C(F)F)n3)[C@H](c3ccc(F)cc3Cl)N=C(c3nccs3)N2C1` (stereo partly drawn) [Example 338] showed an EC50 of less than 100 nM. `CCNC(=O)N[C@H]1CC2=C(c3ccn(C(F)F)n3)[C@H](c3ccc(F)cc3Cl)N=C(c3nccs3)N2C1` [Example 203] showed an EC50 of less than 100 nM. With `Cc1ccc(C(=O)O)cc1S(=O)(=O)N[C@H]1CC2=C(c3ccn(C(F)F)n3)[C@H](c3ccc(F)cc3Cl)N=C(c3nccs3)N2C1` [Example 28] the EC50 was 100 to 400 nM. For `O=C(Nc1ccccn1)OCCCS(=O)(=O)N[C@H]1CC2=C(c3ccn(C(F)F)n3)[C@H](c3ccc(F)cc3Cl)N=C(c3nccs3)N2C1` [Example 327], the EC50 was less than 100 nM. `O=S(=O)(N[C@H]1CC2=C(c3ccn(C(F)F)n3)[C@H](c3ccc(F)cc3Cl)N=C(c3nccs3)N2C1)c1cccc(-c2ccccc2)n1` [Example 409] was tested, and the EC50 was less than 100 nM. With `COC(=O)c1ccccc1CS(=O)(=O)N[C@H]1CC2=C(c3ccn(C(F)F)n3)[C@H](c3ccc(F)cc3Cl)N=C(c3nccs3)N2C1` [Example 22] the EC50 was 100 to 400 nM. With `O=S(=O)(NCc1cnccn1)N[C@H]1CC2=C(c3ccn(C(F)F)n3)[C@H](c3ccc(F)cc3Cl)N=C(c3nccs3)N2C1` [Example 317] the EC50 was less than 100 nM. `O=S(=O)(N[C@H]1CC2=C(c3ccn(C(F)F)n3)[C@H](c3ccc(F)cc3Cl)N=C(c3nccs3)N2C1)[C@H]1C[C@H]1c1ccccn1` [Example 391] gave an EC50 of 100 to 400 nM. `O=C(N[C@H]1CC2=C(c3ccn(C(F)F)n3)[C@H](c3ccc(F)cc3Cl)N=C(c3nccs3)N2C1)N1CCC(O)(c2nccs2)CC1` [Example 244] gave an EC50 of 100 to 400 nM. `COC(=O)c1ccccc1S(=O)(=O)NC[C@]1(F)CC2=C(c3ccn(C(F)F)n3)[C@H](c3ccc(F)cc3Cl)N=C(c3nccs3)N2C1` [Example 189] was tested, and the EC50 was greater than 400 nM. For `C#CCNC[C@]1(O)CC2=C(c3ccn(C(F)F)n3)[C@H](c3ccc(F)cc3Cl)N=C(c3nccs3)N2C1` [Example 115], the EC50 was greater than 400 nM. `OCCOC[C@]1(O)CC2=C(c3ccn(C(F)F)n3)[C@H](c3ccc(F)cc3Cl)N=C(c3nccs3)N2C1` [Example 110] showed an EC50 of 100 to 400 nM. In the case of `O=C(NC1CC1)N[C@H]1CC2=C(c3ccn(C(F)F)n3)[C@H](c3ccc(F)cc3Cl)N=C(c3nccs3)N2C1` [Example 205], the EC50 is reported as less than 100 nM. Compound `O=C(N[C@H]1CC2=C(c3ccn(C(F)F)n3)[C@H](c3ccc(F)cc3Cl)N=C(c3nccs3)N2C1)N1CC[C@H](O)C1` [Example 224] has an EC50 of less than 100 nM. `C[C@@H](NS(=O)(=O)N[C@H]1CC2=C(c3ccn(C(F)F)n3)[C@H](c3ccc(F)cc3Cl)N=C(c3nccs3)N2C1)c1ccccn1` [Example 159] was tested, and the EC50 was greater than 400 nM. In the case of `O=C(N[C@H]1CC2=C(c3ccn(C(F)F)n3)[C@H](c3ccc(F)cc3Cl)N=C(c3nccs3)N2C1)OC1CCC1` [Example 253], the EC50 is reported as less than 100 nM. Work on `CCC(=O)N[C@H]1CC2=C(c3ccn(C(F)F)n3)[C@H](c3ccc(F)cc3Cl)N=C(c3nccs3)N2C1` [Example 197] yielded an EC50 of 100 to 400 nM. `COC(=O)[C@H]1C[C@H](S(=O)(=O)N[C@H]2CC3=C(c4ccn(C(F)F)n4)[C@H](c4ccc(F)cc4Cl)N=C(c4nccs4)N3C2)C1` [Example 14] gave an EC50 of 100 to 400 nM. Compound `O=C(O)c1cccc(S(=O)(=O)NC[C@@]2(O)CC3=C(c4ccn(C(F)F)n4)[C@H](c4ccc(F)cc4Cl)N=C(c4nccs4)N3C2)c1` [Example 133] has an EC50 greater than 400 nM. Compound `O=S(=O)(NC1CCCCC1)N[C@H]1CC2=C(c3ccn(C(F)F)n3)[C@H](c3ccc(F)cc3Cl)N=C(c3nccs3)N2C1` [Example 417] has an EC50 of less than 100 nM. In the case of `OC1(Cc2nnn[nH]2)CC2=C(c3ccn(C(F)F)n3)[C@H](c3ccc(F)cc3Cl)N=C(c3nccs3)N2C1` (stereo partly drawn) [Example 141], the EC50 is reported as greater than 400 nM. In the case of `COC(=O)CS(=O)(=O)N[C@H]1CC2=C(c3ccn(C(F)F)n3)[C@H](c3ccc(F)cc3Cl)N=C(c3nccs3)N2C1` [Example 12], the EC50 is reported as 100 to 400 nM. For `O=S(=O)(N[C@H]1CC2=C(c3ccn(C(F)F)n3)[C@H](c3ccc(F)cc3Cl)N=C(c3nccs3)N2C1)N1C[C@@H](O)[C@H](O)C1` [Example 102], the EC50 was less than 100 nM. `O=S(=O)(N[C@H]1CC2=C(c3ccn(C(F)F)n3)[C@H](c3ccc(F)cc3Cl)N=C(c3nccs3)N2C1)c1cc(F)c(F)c(F)c1` [Example 412] was tested, and the EC50 was less than 100 nM. In the case of `CNC(=O)N[C@H]1CC2=C(c3ccn(C(F)F)n3)[C@H](c3ccc(F)cc3Cl)N=C(c3nccs3)N2C1` [Example 199], the EC50 is reported as 100 to 400 nM. In the case of `O=S(=O)(N[C@H]1CC2=C(c3ccn(C(F)F)n3)[C@H](c3ccc(F)cc3Cl)N=C(c3nccs3)N2C1)N1CCC(F)(F)CC1` [Example 277], the EC50 is reported as less than 100 nM. In the case of `O=S(=O)(N[C@H]1CC2=C(c3ccn(C(F)F)n3)[C@H](c3ccc(F)cc3Cl)N=C(c3nccs3)N2C1)N1CCC[C@H]1C(F)(F)F` [Example 281], the EC50 is reported as less than 100 nM. `N#CC[C@@]1(F)CC2=C(c3ccn(C(F)F)n3)[C@H](c3ccc(F)cc3Cl)N=C(c3nccs3)N2C1` [Example 194] showed an EC50 of 100 to 400 nM. For `Cc1ccc(S(=O)(=O)N2CCN([C@H]3CC4=C(c5ccn(C(F)F)n5)[C@H](c5ccc(F)cc5Cl)N=C(c5nccs5)N4C3)CC2)cc1` [Example 44], the EC50 was greater than 400 nM. With `O=C(N[C@H]1CC2=C(c3ccn(C(F)F)n3)[C@H](c3ccc(F)cc3Cl)N=C(c3nccs3)N2C1)c1ncccn1` [Example 232] the EC50 was less than 100 nM. Compound `O=S(=O)(CCCO)N[C@H]1CC2=C(c3ccn(C(F)F)n3)[C@H](c3ccc(F)cc3Cl)N=C(c3nccs3)N2C1` [compound 313] has an EC50 of less than 100 nM. In the case of `O[C@]1(CN2CCOCC2)CC2=C(c3ccn(C(F)F)n3)[C@H](c3ccc(F)cc3Cl)N=C(c3nccs3)N2C1` [Example 138], the EC50 is reported as greater than 400 nM. In the case of `C=CCNC[C@@]1(N)CC2=C(c3ccn(C(F)F)n3)[C@H](c3ccc(F)cc3Cl)N=C(c3nccs3)N2C1` [Example 149], the EC50 is reported as greater than 400 nM. With `CCOC(=O)Cn1cc(S(=O)(=O)N[C@H]2CC3=C(c4ccn(C(F)F)n4)[C@H](c4ccc(F)cc4Cl)N=C(c4nccs4)N3C2)cn1` [Example 38] the EC50 was greater than 400 nM. Compound `OC(c1c[nH]nn1)C1(F)CC2=C(c3ccn(C(F)F)n3)[C@H](c3ccc(F)cc3Cl)N=C(c3nccs3)N2C1` (stereo partly drawn) [Example 184] has an EC50 greater than 400 nM. In the case of `O=C(N[C@H]1CC2=C(c3ccn(C(F)F)n3)[C@H](c3ccc(F)cc3Cl)N=C(c3nccs3)N2C1)c1ncc(-c2ccccn2)s1` [Example 263], the EC50 is reported as 100 to 400 nM. For `O=C(O)[C@H]1C[C@@H](S(=O)(=O)N[C@H]2CC3=C(c4ccn(C(F)F)n4)[C@H](c4ccc(F)cc4Cl)N=C(c4nccs4)N3C2)C1` [Example 17], the EC50 was 100 to 400 nM. `O=S(=O)(Nc1ccccn1)N[C@H]1CC2=C(c3ccn(C(F)F)n3)[C@H](c3ccc(F)cc3Cl)N=C(c3nccs3)N2C1` [Example 320] showed an EC50 of 100 to 400 nM.
